Measured values reported in patent US8962596B2 (Array BioPharma Inc., priority 2010, dated 2015).

Experiments:
Assay type in all cases: biochemical
JAK3 = target: T1, JAK3 (Homo sapiens, UniProt P52333); assay: JAK3 Inhibition Assay (Omnia kinase fluorescence peptide substrate assay); details: averaged IC50 ranges; assay of Example D; 10 μM (Km app) or 1 mM ATP, 2.5 nM JAK3
T1 construct: purchased Invitrogen Corporation, Carlsbad, Calif; PV4080
T1 sequence (P52333 1-1124): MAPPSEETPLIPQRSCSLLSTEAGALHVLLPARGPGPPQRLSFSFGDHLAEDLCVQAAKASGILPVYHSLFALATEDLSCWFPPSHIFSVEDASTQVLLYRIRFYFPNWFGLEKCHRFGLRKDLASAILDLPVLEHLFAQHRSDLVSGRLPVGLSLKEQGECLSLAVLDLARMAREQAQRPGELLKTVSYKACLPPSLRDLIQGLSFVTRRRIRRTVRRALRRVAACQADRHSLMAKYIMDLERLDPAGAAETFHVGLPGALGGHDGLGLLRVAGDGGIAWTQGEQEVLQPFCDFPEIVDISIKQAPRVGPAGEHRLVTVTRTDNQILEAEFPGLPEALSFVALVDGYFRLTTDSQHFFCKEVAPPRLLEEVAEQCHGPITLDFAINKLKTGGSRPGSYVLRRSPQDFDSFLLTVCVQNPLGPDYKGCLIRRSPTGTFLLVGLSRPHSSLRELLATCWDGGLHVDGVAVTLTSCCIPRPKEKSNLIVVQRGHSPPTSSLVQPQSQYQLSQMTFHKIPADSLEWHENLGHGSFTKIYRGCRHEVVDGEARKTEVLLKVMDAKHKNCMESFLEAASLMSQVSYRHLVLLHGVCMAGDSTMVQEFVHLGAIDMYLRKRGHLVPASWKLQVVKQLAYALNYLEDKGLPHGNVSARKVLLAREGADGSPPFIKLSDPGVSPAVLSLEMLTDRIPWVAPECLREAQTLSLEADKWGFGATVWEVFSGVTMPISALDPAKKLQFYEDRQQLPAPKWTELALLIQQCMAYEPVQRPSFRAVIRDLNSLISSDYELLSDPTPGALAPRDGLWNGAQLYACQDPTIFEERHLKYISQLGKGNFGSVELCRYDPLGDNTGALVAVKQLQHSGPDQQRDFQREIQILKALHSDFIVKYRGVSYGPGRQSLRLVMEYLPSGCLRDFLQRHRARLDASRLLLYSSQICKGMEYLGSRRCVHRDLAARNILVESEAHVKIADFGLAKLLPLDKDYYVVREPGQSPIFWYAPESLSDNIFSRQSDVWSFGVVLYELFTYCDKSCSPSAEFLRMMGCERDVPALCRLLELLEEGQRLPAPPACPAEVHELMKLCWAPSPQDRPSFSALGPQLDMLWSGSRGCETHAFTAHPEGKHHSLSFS
From the text: (§1) The assays described in Examples A, B, C and D for the determination of Tyk2, JAK1, JAK2 and JAK3 kinase activity, respectively, utilized the Omnia® Kinase fluorescence peptide substrate-based technology (Invitrogen). The specific components of the assay mixture are described in Examples A, B, C and D. In these assays, Mg^2+ is chelated upon phosphorylation of the Omnia peptide by the kinase to form a bridge between the chelation-enhanced fluorophore Sox and the phosphate, resulting in an increase in fluorescence emission at 485 nm when excited at […]. The reactions were therefore read at excitation 360 nm and emission was measured at 485 nm every 50 seconds for 45 minutes using a PerkinElmer EnVision Multilabel Plate Reader.
(§2) The final buffer conditions for Tyk2, JAK1, JAK2, and JAK3 assays were as follows: 25 mM HEPES, pH 7.4, 10 mM MgCl2, 0.01% Triton X-100 and 1 mM DTT.
(§3) Compounds were prepared at 50× the final concentration in DMSO by conducting 3-fold serial dilutions from a 500-μM intermediate dilution to give a 10-point dosing curve having a high dose of 10 μM. Two-μL aliquots of these were transferred to a fresh plate for a ten-fold intermediate dilution with assay buffer. Five-μL aliquots of the diluted compounds were then transferred to 20-μL of assay mixtures described in Examples A, B, C and D for a final concentration of DMSO of 2%. A standard or reference compound was typically included on each assay plate to validate that plate. For each plate, percent of control (POC) values were calculated for each well according to the following equation:
(§4) where Xmax=Average Uninhibited Controls • Xmin=Average Background IC50's were estimated from the POC's using a standard 4-parameter logistic model:
(§5) where • A=Minimum Y (Bottom Asymptote) • B=Maximum Y (Top Asymptote) • C=EC50 • D=Slope Factor • X=Compound Concentration (nM) • Y=POC
(§6) The IC50 is defined as the concentration of inhibitor at which the POC equals 50 for the fitted curve.
(§7) Compounds of Formula I were screened for their ability to inhibit JAK3 using the general enzyme inhibition assay method, in which the assay mixture contained 10 μM (Km app) or 1 mM ATP, 10 μM Omnia® Y7 peptide (Catalog #IVGN KNZ3071C, Invitrogen Corporation, Carlsbad, Calif.) and 2.5 nM JAK3 in a total volume of 20 μL. JAK3 was purchased from Invitrogen Corporation, Carlsbad, Calif. (catalog #IVGN PV4080).

Human Tyk2 kinase domain = target: T2, Human Tyk2 kinase domain (Homo sapiens, UniProt P29597); assay: Tyk2 Inhibition Assay (Omnia kinase fluorescence peptide substrate assay); details: averaged IC50 ranges; assay of Example A; 10 μM (Km app) or 1 mM ATP, 2 nM Tyk2
T2 construct: comprising amino acids 886 to 1187 with 10 additional histidine residues; 10xHis (histidine tag) (C, cleaved yes); made in house
T2 sequence (P29597 886-1187): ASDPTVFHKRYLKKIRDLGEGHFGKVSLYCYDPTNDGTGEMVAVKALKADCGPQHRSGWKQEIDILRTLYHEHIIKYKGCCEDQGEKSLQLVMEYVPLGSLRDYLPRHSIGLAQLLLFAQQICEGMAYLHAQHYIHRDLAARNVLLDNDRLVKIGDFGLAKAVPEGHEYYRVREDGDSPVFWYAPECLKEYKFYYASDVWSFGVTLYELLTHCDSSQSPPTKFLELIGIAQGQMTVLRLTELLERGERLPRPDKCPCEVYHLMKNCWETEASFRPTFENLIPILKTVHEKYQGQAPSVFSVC
From the text: as §1, §2, §3, §4, §5, §6
Compounds of Formula I were screened for their ability to inhibit Tyk2 using the general enzyme inhibition assay method, in which the assay mixture contained 10 μM (Km app) or 1 mM ATP, 8 μM Omnia® Y12 peptide (Catalog #IVGN KPZ3121C; Invitrogen Corporation, Carlsbad, Calif.) and 2 nM Tyk2 in a total volume of 20 μL. Human Tyk2 kinase domain, comprising amino acids 886 to 1187 with 10 additional histidine residues (histidine tag) on the carboxy terminus, was expressed and purified from bacculovirus in-house at Array BioPharma Inc. (Boulder, Colo.). The histidine tag was cleaved after purification using standard conditions.

JAK2 = target: T3, JAK2 (Homo sapiens, UniProt O60674); assay: JAK2 Inhibition Assay (Omnia kinase fluorescence peptide substrate assay); details: averaged IC50 ranges; assay of Example C; 25 μM (Km app) or 1 mM ATP, 5 nM JAK2
T3 construct: purchased Invitrogen Corporation, Carlsbad, Calif; PV4288
From the text: as §1, §2, §3, §4, §5, §6
as §7, with “inhibit JAK2” for “inhibit JAK3”, “contained 25” for “contained 10”, “and 5” for “and 2.5”, “nM JAK2” for “nM JAK3”, “μL. JAK2” for “μL. JAK3”, “#IVGN PV4288).” for “#IVGN PV4080).”

JAK1 = target: T4, JAK1 (Homo sapiens, UniProt P23458); assay: JAK1 Inhibition Assay (Omnia kinase fluorescence peptide substrate assay); details: averaged IC50 ranges; assay of Example B; 40 μM (Km app) or 1 mM ATP, 15 nM JAK1
T4 construct: purchased Invitrogen Corporation, Carlsbad, Calif; PV4775
From the text: as §1, §2, §3, §4, §5, §6
Compounds of Formula I were screened for their ability to inhibit JAK1 using the general enzyme inhibition assay method, in which the assay mixture contained 40 μM (Km app) or 1 mM ATP, 8 μM Omnia® Y12 peptide (Catalog #IVGN KPZ3121C; Invitrogen Corporation, Carlsbad, Calif.) and 15 nM JAK1 in a total volume of 20 μL. JAK1 was purchased from Invitrogen Corporation, Carlsbad, Calif. (catalog #IVGN PV4775).

T3 sequence (O60674 whole entry): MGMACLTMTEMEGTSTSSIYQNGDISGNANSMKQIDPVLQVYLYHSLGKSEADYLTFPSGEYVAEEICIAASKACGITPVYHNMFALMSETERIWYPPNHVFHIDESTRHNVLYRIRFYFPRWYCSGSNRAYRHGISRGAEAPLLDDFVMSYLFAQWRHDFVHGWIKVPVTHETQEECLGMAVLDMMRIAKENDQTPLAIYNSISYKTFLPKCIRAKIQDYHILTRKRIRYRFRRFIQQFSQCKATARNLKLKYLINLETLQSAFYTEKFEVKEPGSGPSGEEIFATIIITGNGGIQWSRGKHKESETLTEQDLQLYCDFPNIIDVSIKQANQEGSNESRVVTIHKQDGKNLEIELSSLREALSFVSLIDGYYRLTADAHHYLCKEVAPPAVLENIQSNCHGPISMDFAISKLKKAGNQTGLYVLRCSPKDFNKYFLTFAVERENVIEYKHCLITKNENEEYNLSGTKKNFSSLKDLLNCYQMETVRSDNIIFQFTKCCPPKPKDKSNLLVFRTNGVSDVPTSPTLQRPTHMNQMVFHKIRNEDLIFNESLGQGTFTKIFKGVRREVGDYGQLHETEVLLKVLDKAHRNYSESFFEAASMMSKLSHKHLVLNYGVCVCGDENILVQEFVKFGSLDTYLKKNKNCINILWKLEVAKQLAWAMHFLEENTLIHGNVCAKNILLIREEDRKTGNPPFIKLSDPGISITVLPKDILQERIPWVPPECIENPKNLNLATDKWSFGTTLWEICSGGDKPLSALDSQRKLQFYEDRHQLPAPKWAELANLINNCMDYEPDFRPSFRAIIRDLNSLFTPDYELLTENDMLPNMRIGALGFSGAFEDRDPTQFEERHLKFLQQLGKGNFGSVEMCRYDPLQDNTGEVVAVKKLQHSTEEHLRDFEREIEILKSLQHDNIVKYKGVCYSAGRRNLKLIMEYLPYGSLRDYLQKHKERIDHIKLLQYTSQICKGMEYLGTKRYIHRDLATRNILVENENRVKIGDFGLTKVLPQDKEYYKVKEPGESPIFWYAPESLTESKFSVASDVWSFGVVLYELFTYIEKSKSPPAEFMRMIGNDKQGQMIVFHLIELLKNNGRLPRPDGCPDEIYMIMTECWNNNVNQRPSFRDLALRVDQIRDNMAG
T4 sequence (P23458 whole entry): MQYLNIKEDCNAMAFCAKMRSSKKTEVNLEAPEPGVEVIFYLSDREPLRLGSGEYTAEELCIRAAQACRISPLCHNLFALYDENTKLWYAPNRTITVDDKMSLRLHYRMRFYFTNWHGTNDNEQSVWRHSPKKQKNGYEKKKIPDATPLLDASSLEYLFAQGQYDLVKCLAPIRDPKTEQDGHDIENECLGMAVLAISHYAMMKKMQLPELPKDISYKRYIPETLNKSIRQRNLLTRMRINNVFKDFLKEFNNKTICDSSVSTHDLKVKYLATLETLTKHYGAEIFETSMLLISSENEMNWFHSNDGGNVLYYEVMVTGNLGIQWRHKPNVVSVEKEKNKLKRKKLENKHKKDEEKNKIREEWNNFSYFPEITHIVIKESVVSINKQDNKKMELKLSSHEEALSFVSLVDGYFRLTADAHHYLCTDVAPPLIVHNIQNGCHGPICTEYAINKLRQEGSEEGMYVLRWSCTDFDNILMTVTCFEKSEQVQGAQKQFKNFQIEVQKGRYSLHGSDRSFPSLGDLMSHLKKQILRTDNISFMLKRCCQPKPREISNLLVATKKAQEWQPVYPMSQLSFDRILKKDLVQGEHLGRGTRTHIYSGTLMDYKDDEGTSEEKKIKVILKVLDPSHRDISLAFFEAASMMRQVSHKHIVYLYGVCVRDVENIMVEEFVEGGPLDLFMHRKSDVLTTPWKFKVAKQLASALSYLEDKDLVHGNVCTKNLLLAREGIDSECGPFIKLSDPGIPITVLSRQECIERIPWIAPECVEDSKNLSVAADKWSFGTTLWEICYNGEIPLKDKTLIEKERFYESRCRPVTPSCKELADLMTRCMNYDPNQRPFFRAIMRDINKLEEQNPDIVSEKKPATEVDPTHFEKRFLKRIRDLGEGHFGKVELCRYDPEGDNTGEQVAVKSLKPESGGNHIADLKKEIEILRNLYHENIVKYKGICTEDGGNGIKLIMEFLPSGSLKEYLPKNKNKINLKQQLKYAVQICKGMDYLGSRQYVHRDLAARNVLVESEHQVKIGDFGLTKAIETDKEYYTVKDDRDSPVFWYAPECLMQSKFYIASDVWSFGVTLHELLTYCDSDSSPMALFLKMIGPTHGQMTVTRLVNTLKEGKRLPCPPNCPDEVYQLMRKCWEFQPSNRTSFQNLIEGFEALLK

## Cn1cc(-c2cc3nccn3c(-c3cnn(C4(CC#N)CN(CC5CC5)C4)c3)n2)cn1 [Example 84, 2-(1-(cyclopropylmethyl)-3-(4-(7-(1-methyl-1H-pyrazol-4-yl)imidazo[1,2-c]pyrimidin-5-yl)-1H-pyrazol-1-yl)azetidin-3-yl)acetonitrile]
JAK3
  IC50: > 1000 nM
Human Tyk2 kinase domain
  IC50: < 10 nM
JAK2
  IC50: 10 to 100 nM
JAK1
  IC50: 100 to 1000 nM

## CN1CCn2c(-c3cc4nccn4c(-c4cnn(C(CC#N)C5CC5)c4)n3)cnc2C1 (centres unmarked) [Example 57, 3-cyclopropyl-3-(4-(7-(7-methyl-5,6,7,8-tetrahydroimidazo[1,2-a]pyrazin-3-yl)imidazo[1,2-c]pyrimidin-5-yl)-1H-pyrazol-1-yl)propanenitrile]
JAK3
  IC50: > 1000 nM
Human Tyk2 kinase domain
  IC50: 10 to 100 nM
JAK2
  IC50: 100 to 1000 nM
JAK1
  IC50: 100 to 1000 nM

## Cn1cc(-c2cc3nccn3c(-c3cnn(C4(CC#N)CC5(COC5)C4)c3)n2)cn1 [Example 148, 2-(6-(4-(7-(1-methyl-1H-pyrazol-4-yl)imidazo[1,2-c]pyrimidin-5-yl)-1H-pyrazol-1-yl)-2-oxaspiro[3.3]heptan-6-yl)acetonitrile]
JAK3
  IC50: > 1000 nM
Human Tyk2 kinase domain
  IC50: < 10 nM
JAK2
  IC50: 10 to 100 nM
JAK1
  IC50: 100 to 1000 nM

## CN1CCN(c2ccc(-c3cc4nccn4c(-c4cnn(C5(CC#N)CN(CC(F)(F)F)C5)c4)n3)cc2)CC1 [Example 137, 2-(3-(4-(7-(4-(4-methylpiperazin-1-yl)phenyl)imidazo[1,2-c]pyrimidin-5-yl)-1H-pyrazol-1-yl)-1-(2,2,2-trifluoroethyl)azetidin-3-yl)acetonitrile]
JAK3
  IC50: 100 to 1000 nM
Human Tyk2 kinase domain
  IC50: < 10 nM
JAK2
  IC50: 10 to 100 nM
JAK1
  IC50: 10 to 100 nM

## Cn1cc(-c2cc3nccn3c(-c3cnn(C4(CC#N)CN(Cc5ccccc5)C4)c3)n2)cn1 [Example 88, 2-(1-benzyl-3-(4-(7-(1-methyl-1H-pyrazol-4-yl)imidazo[1,2-c]pyrimidin-5-yl)-1H-pyrazol-1-yl)azetidin-3-yl)acetonitrile]
JAK3
  IC50: > 1000 nM
Human Tyk2 kinase domain
  IC50: 100 to 1000 nM
JAK2
  IC50: 100 to 1000 nM
JAK1
  IC50: > 1000 nM

## Cc1nn(C(CC#N)C2CC2)cc1-c1nc(-c2cnn(C)c2)cc2nccn12 (centres unmarked) [Example 109, 3-Cyclopropyl-3-(3-methyl-4-(7-(1-methyl-1H-pyrazol-4-yl)imidazo[1,2-c]pyrimidin-5-yl)-1H-pyrazol-1-yl)propanenitrile]
JAK3
  IC50: > 1000 nM
Human Tyk2 kinase domain
  IC50: 10 to 100 nM
JAK2
  IC50: 100 to 1000 nM
JAK1
  IC50: > 1000 nM

## N#CCC(C1CC1)n1cc(-c2nc(-c3ccc(N4CC5CCC(C4)O5)cc3)cc3nccn23)cn1 (centres unmarked) [Example 58, 3-(4-(7-(4-(8-Oxa-3-azabicyclo[3.2.1]octan-3-yl)phenyl)imidazo[1,2-c]pyrimidin-5-yl)-1H-pyrazol-1-yl)-3-cyclopropylpropanenitrile]
JAK3
  IC50: 100 to 1000 nM
Human Tyk2 kinase domain
  IC50: < 10 nM
JAK2
  IC50: 10 to 100 nM
JAK1
  IC50: 10 to 100 nM

## Cn1cc(-c2cc3ncc(C#N)n3c(-c3cnn(C(CC#N)C4CC4)c3)n2)cn1 (centres unmarked) [Example 26, 5-(1-(2-cyano-1-cyclopropylethyl)-1H-pyrazol-4-yl)-7-(1-methyl-1H-pyrazol-4-yl)imidazo[1,2-c]pyrimidine-3-carbonitrile]
JAK3
  IC50: > 1000 nM
Human Tyk2 kinase domain
  IC50: 100 to 1000 nM
JAK2
  IC50: 100 to 1000 nM
JAK1
  IC50: > 1000 nM

## COc1ncc(-c2cc3nccn3c(-c3cnn(C4(CC#N)CN(S(=O)(=O)C5CC5)C4)c3)n2)cn1 [Example 141, 2-(1-(cyclopropylsulfonyl)-3-(4-(7-(2-methoxypyrimidin-5-yl)imidazo[1,2-c]pyrimidin-5-yl)-1H-pyrazol-1-yl)azetidin-3-yl)acetonitrile]
JAK3
  IC50: > 1000 nM
Human Tyk2 kinase domain
  IC50: 10 to 100 nM
JAK2
  IC50: 100 to 1000 nM
JAK1
  IC50: > 1000 nM

## Cc1ncc(-c2cc3nccn3c(-c3cnn(C4(CC#N)CN(CC(F)(F)F)C4)c3)n2)s1 [Example 102, 2-(3-(4-(7-(2-Methylthiazol-5-yl)imidazo[1,2-c]pyrimidin-5-yl)-1H-pyrazol-1-yl)-1-(2,2,2-trifluoroethyl)azetidin-3-yl)acetonitrile]
JAK3
  IC50: > 1000 nM
Human Tyk2 kinase domain
  IC50: 10 to 100 nM
JAK2
  IC50: 100 to 1000 nM
JAK1
  IC50: 100 to 1000 nM

## N#CCC(C1CC1)n1cc(-c2nc(-c3cnn(CC(F)(F)F)c3)cc3nccn23)cn1 (centres unmarked) [Example 39, 3-cyclopropyl-3-(4-(7-(1-(2,2,2-trifluoroethyl)-1H-pyrazol-4-yl)imidazo[1,2-c]pyrimidin-5-yl)-1H-pyrazol-1-yl)propanenitrile]
JAK3
  IC50: 100 to 1000 nM
Human Tyk2 kinase domain
  IC50: < 10 nM
JAK2
  IC50: 10 to 100 nM
JAK1
  IC50: 10 to 100 nM
